Non-standard residues stand in square brackets, D forms with d. No end group written: not given here. Aib = CC(C)(N)C(=O)O; βAla = NCCC(=O)O
tested on: Normal Kunming (KM) mice; experiment: multiple OGTT (mOGTT): hypoglycemic duration after a single administration; type: in vivo; settings: monomeric peptides, single injection at the same dose (1.126 nmol), subcutaneous
From the text: • 1. Methods: Normal Kunming (KM) mice (purchased from Guangdong Animal Center) were used for oral glucose tolerance test (OGTT) to obtain the hypoglycemic activity and durability of drug. […] The blood glucose meter and blood glucose test paper were from Bayer […]. The average blood glucose of each group was used as an evaluation standard: When the average blood glucose of experimental group was higher than that of the NaCl control group for two times, the measurement stopped and the hypoglycemic period compared to the blank control group was the effective duration. • 2. Results • 2.1 single OGTTs: after a single administration, the mice were orally administered glucose once and measured the blood glucose from the tail blood at 0, 10, 20, 40, 60 and 120 min. […] The duration of each monomer group was about 1⁄2-1⁄4 of the duration of its corresponding dimer group. […] Therefore, the 2G3 peptide was selected for treating type II diabetes (T2D) in vivo and subsequent experiments.

| Substance | Hypoglycemic |
| --- | --- |
| His-Ala-Glu-Gly-Thr-Phe-Thr-Ser-Asp-Val-Ser-Cys-Tyr-Leu-Glu-Gly-Gln-Ala-Ala-Lys[N-ϵ-(N-α-oleoyl)]-Glu-Phe-Ile-Ala-Trp-Leu-Val-Arg-Gly-Arg-Gly-NH2 (HAEGTFTSDVSCYLEGQAAXEFIAWLVRGRG; not fully specified; oleoyl on Lys; C-terminal amide; Sequence is synthesized; (20)..(20) Xaa is 26Lys[N-e-(N-a-oleoyl-L-g-glutamyl)]; (31)..(31) N-terminal) [G4 series 33] | 7 days |
| His-Ala-Glu-Gly-Thr-Phe-Thr-Ser-Asp-Val-Cys-Ser-Tyr-Leu-Glu-Gly-Gln-Ala-Ala-Lys[N-ϵ-(N-α-Palmitoyl)]-Glu-Phe-Ile-Ala-Trp-Leu-Val-Arg-Gly-Arg-Gly-OH (HAEGTFTSDVCSYLEGQAAXEFIAWLVRGRG; palmitoyl on Lys; C-terminal acid; Sequence is synthesized; (20)..(20) Xaa is 26Lys[N-e-(N-a-palmitoyl-L-g-glutamyl)]; (31)..(31) C-terminal) [G4 series 24] | 3 days |
| His-aAib-Glu-Gly-Thr-Phe-Thr-Ser-Asp-Val-Cys-Ser-Tyr-Leu-Glu-Gly-Gln-Ala-Ala-Lys[N-ϵ-(N-α-oleoyl-L-γ-glutamyl)]-Glu-Phe-Ile-Ala-Trp-Leu-Val-Arg-Gly-Arg-Gly-OH (HXEGTFTSDVCSYLEGQAAXEFIAWLVRGRG; αAib; oleoyl-γ-glutamyl on Lys; C-terminal acid; Sequence is synthesized; (2)..(2) Xaa is aAib; (20)..(20) Xaa is 26Lys[N-e-(N-a-oleoyl-L-g-glutamyl)]; (31)..(31) C-terminal) [G2 series 14] | 4 days |
| His-aAib-Glu-Gly-Thr-Phe-Thr-Ser-Asp-Val-Ser-Cys-Tyr-Leu-Glu-Gly-Gln-Ala-Ala-Lys-Glu-Phe-Ile-Ala-Trp-Leu-Val-Arg-aAib-Arg-NH2 (H[Aib]EGTFTSDVSCYLEGQAAKEFIAWLVR[Aib]R-NH2; also: disulfide-linked homodimer via Cys) [G7 series 51] | 3 days |
| His-aAib-Glu-Gly-Thr-Phe-Thr-Ser-Asp-Val-Ser-Cys-Tyr-Leu-Glu-Gly-Gln-Ala-Ala-Lys[N-ϵ-(N-α-Palmitoyl-L-γ-glutamyl)]-Glu-Phe-Ile-Ala-Trp-Leu-Val-Arg-Gly-Arg-Gly-OH (HXEGTFTSDVSCYLEGQAAXEFIAWLVRGRG; Aib; palmitoyl-gamma-Glu on Lys; C-terminal acid; Sequence is synthesized; (2)..(2) Xaa is aAib; (20)..(20) Xaa 26Lys[N-e-(N-a-palmitoyl-L-g-glutamyl)]; (31)..(31) C-terminal) [G6 series 45] | 4 days |
| His-aAib-Glu-Gly-Thr-Phe-Thr-Ser-Asp-Val-Ser-Cys-Tyr-Leu-Glu-Gly-Gln-Ala-Ala-Lys-Glu-Phe-Ile-Ala-Trp-Leu-Val-Arg-aAib-Arg-OH (H[Aib]EGTFTSDVSCYLEGQAAKEFIAWLVR[Aib]R-OH; also: disulfide-linked homodimer via Cys) [G7 series 52] | 1 days |
| His-Ala-Glu-Gly-Thr-Phe-Thr-Ser-Asp-Val-Ser-Cys-Tyr-Leu-Glu-Gly-Gln-Ala-Ala-Lys[N-ϵ-(N-α-Palmitoyl)]-Glu-Phe-Ile-Ala-Trp-Leu-Val-Arg-Gly-Arg-Gly-OH (HAEGTFTSDVSCYLEGQAAXEFIAWLVRGRG; not fully specified; palmitoyl on Lys side chain; C-terminal acid; Sequence is synthesized; (20)..(20) Xaa is 26Lys[N-e-(N-a-palmitoyl-L-g-glutamyl)]; (31)..(31) C-terminal) [G4 series 34] | 4 days |
| His-Ala-Glu-Gly-Thr-Phe-Thr-Ser-Asp-Val-Ser-Cys-Tyr-Leu-Glu-Gly-Gln-Ala-Ala-Lys[N-ϵ-(N-α-oleoyl)]-Glu-Phe-Ile-Ala-Trp-Leu-Val-Arg-Gly-Arg-Gly-OH (HAEGTFTSDVSCYLEGQAAXEFIAWLVRGRG; not fully specified; oleoyl on Lys; C-terminal acid; Sequence is synthesized; (20)..(20) Xaa is 26Lys[N-e-(N-a-oleoyl-L-g-glutamyl)]; (31)..(31) C-terminal) [G4 series 32] | 5 days |

same assay, conditions: single injection at the same dose (1.126 nmol), subcutaneous

| Substance | Hypoglycemic duration |
| --- | --- |
| 2G6 series 49: disulfide-linked homodimer of monomer SEQ ID NO: 49 (HXEGTFTSDVSCYLEGQAAXEFIAWLVRGRG; disulfide-linked homodimer; Sequence is synthesized; (2)..(2) Xaa is bAib; (20)..(20) Xaa is 26Lys[N-e-(N-a-oleoyl-L-g-glutamyl)]; (31)..(31) N-terminal) | 17 days |
| 2G8 series 56: disulfide-linked homodimer of monomer SEQ ID NO: 56 (HAEGTFTCDVSSYLEGQAAXEFIAWLVRGRG; disulfide-linked homodimer; Sequence is synthesized; (20)..(20) Xaa is 26Lys[N-e-(N-a-palmitoyl-L-g-glutamyl)]; (31)..(31) C-terminal) | 2 days |
| 2G4 series 35: disulfide-linked homodimer of monomer SEQ ID NO: 35 (HAEGTFTSDVSCYLEGQAAXEFIAWLVRGRG; not fully specified; disulfide-linked homodimer; Sequence is synthesized; (20)..(20) Xaa is 26Lys[N-e-(N-a-palmitoyl-L-g-glutamyl)]; (31)..(31) N-terminal) | 15 days |
| 2G3 series 22: disulfide-linked homodimer of monomer SEQ ID NO: 22 (HAEGTFTSDVSCYLEGQAAXEFIAWLVRGRG; not fully specified; disulfide-linked homodimer; Sequence is synthesized; (20)..(20) Xaa is 26Lys[N-e-(N-a-palmitoyl-L-g-glutamyl)]; (31)..(31) N-terminal) | 16 days |
| 2G4 series 32: disulfide-linked homodimer of monomer SEQ ID NO: 32 (HAEGTFTSDVSCYLEGQAAXEFIAWLVRGRG; not fully specified; disulfide-linked homodimer; Sequence is synthesized; (20)..(20) Xaa is 26Lys[N-e-(N-a-oleoyl-L-g-glutamyl)]; (31)..(31) C-terminal) | 13 days |
| 2G8 series 58: disulfide-linked homodimer of monomer SEQ ID NO: 58 (HAEGTFTCDVSSYLEGQAAXEFIAWLVRGRG; disulfide-linked homodimer; Sequence is synthesized; (20)..(20) Xaa is 26Lys[N-e-(N-a-oleoyl-L-g-glutamyl)]; (31)..(31) C-terminal) | 3 days |
| 2G7 series 55: disulfide-linked homodimer of monomer SEQ ID NO: 55 (H[βAla]EGTFTSDVSCYLEGQAAKEFIAWLVR[βAla]R-NH2; also: disulfide-linked homodimer, disulfide at 12, other end not in the chain) | 4 days |

Source: US20240150423A1, “GLP-1 ANALOGUE-MODIFIED DIMERS WITH DIFFERENT CONFIGURATIONS, PREPARATION METHOD THEREOF, AND APPLICATION THEREOF IN TREATMENT OF TYPE II DIABETES” (Nanjing Finepeptide Biopharmaceutical Co.,Ltd, priority 2019, published 2024)
